Earlier results on 1 compound are cited in patent US8236817B2, “Polymorphs of 1-cyclopropy1-7-([s,s])-2,8-diazadicyclo[4.3.0]non-8-yl)-6-fluoro-1,4-dihydro-8-methoxy-4-oxo-3-quinoline carboxylic acid hydrochloride and methods for the preparation thereof” (Chemi S.p.A., priority 2003, dated 2012).

For this data set the following is noted: solid form exposed to atmosphere; stated in U.S. Pat. No. 5,849,752.

As to `COc1c(N2C[C@@H]3CCCN[C@@H]3C2)c(F)cc2c(=O)c(C(=O)O)cn(C3CC3)c12.Cl` [anhydrous form], the hygroscopicity result is recorded as “absorbs water from the atmosphere”.
